This note sets out measurements from patent US12338464B2, “Clonal strains of attenuated vaccinia viruses and methods of use thereof” (priority 2011, dated 2025).

Series [1] can be described thus: A549 xenograft: average body weight. The note with it: 2.5 μM ST-246.
Series [2] has as its system A549 human lung carcinoma xenografts. Briefly: A549 xenograft: tumor volume. It counts as in vivo, mouse. The note with it: 2.5 μM ST-246 in addition to LIVP 5.1.1 or GLV-1h68.
Series [3] concerns A549 human lung carcinoma cells. It counts as cell-based. Conditions: 5 μM ST-246.

SMILES strings stand for the structures.

For the molecule `O=C(NN1C(=O)[C@@H]2[C@@H]3C=C[C@@H]([C@H]4C[C@@H]34)[C@@H]2C1=O)c1ccc(C(F)(F)F)cc1` [ST-246], the “effect of ST-246 on toxicity of virus” value in series [1] is recorded as “reduced toxicity”. The “effect of ST-246 on tumor reduction by virus” value in series [2] is on record as “decreased the ability of each virus to reduce tumor size”. Besides, the “effect of ST-246 on eradication of A549 cells by LIVP 5.1.1 and GLV-1h68” value in series [3] is “reduced the eradication of A549 cells”.
